# Data reported in PMC6105845, “Nucleotide Prodrug Containing a Nonproteinogenic Amino Acid To Improve Oral Delivery of a Hepatitis C Virus Treatment” (Antimicrobial Agents and Chemotherapy, 2018).
# Experiments:
# [1] = Metabolic stability in hepatic S9 fraction, hamster; format: in vitro ADME; details: 2 μM
# Description: (§1) Blood plasma and S9 stability was studied as described previously ([8]). In brief, the compounds were incubated at 2 μM in hamster, rat, dog, monkey, or human plasma samples for up to 4 h at 37°C. For S9 stability, the compounds were incubated at 2 μM in hamster, rat, dog, monkey, or human intestinal and hepatic S9 fractions for up to 90 min at 37°C in the presence of NADPH and uridine 5′-diphosphoglucuronic acid trisodium salt (UDPGA) (Sigma-Adrich). The samples were analyzed by liquid chromatography coupled to triple-quadrupole mass spectrometry (LC-MS/MS).
# (§2) The data (analyte-to-internal standard peak area ratio) were plotted on a semilog scale and fitted using an exponential fit. The half-life (t1/2) was determined assuming first-order kinetics.
# HCV GT1a replicon = test: HCV GT1a replicon, stably transfected Huh-Lunet cells; format: cell-based, hepatitis C virus; details: for EC50: Hepatitis C virus, 72 h, stably transfected Huh-Lunet cells, 3 days
# Description: Primary hepatocytes from humans, hamsters, dogs, and monkeys were purchased from BioreclamationIVT in 12-well plates seeded at confluence (0.88 × 10^6 cells/well). Huh-Lunet cells were obtained from ReBlikon GmbH (Mainz, Germany) ([19]). Huh-1C was derived from a GT1a replicon clone in which HCV replication was cured. All Huh-Lunet- and Huh-1C-based replicon cell lines were cultured in Dulbecco's modified Eagles' medium (DMEM) with GlutaMAX (Invitrogen, Carlsbad, CA) supplemented with 10% fetal bovine serum (FBS; HyClone, Logan, UT) and 100 U/ml penicillin (Invitrogen). Replicon cell lines containing genotype 1a (H77) and 2a (JFH1) were created as previously reported ([20][–][22]). Caco-2 cells were maintained in DMEM with sodium pyruvate, GlutaMAX supplemented with 1% penicillin-streptomycin, 1% nonessential amino acids, and 10% FBS in an incubator set at 37°C, 90% humidity, and 5% CO2.
# (§3) GT1a, GT1b, and GT2a are authentic subgenomic replicons of the indicated strain. Creation of these HCV replicons was reported previously ([7]).
# (§4) The EC50s, defined as the concentration at which there was a measured 50% decrease in HCV replicon level, were determined in replicon assay as previously described ([24]). Briefly, replicon cells were seeded into 96-well plates. Compounds were serially diluted in DMSO at 200× final concentrations and then added to the assay plate. Luciferase expression was quantified after 3 days of incubation using a commercial luciferase assay (Promega, Madison, WI). Data were analyzed using GraphPad Prism 6.0 (La Jolla, CA).
# (§5) X represents log of compound concentration and Y represents replicon replication as the percentage of DMSO control. EC50s were calculated as an average from at least three independent experiments.
# [2] = Metabolic stability in intestinal S9 fraction, dog; format: in vitro ADME
# Description: as §1, §2
# [3] = Thermodynamic solubility (shaking flask, simulated intestinal fluid); format: physicochemical; details: for solubility thermodynamic: fessif, thermodynamic from solid, crystalline free base GS-6620, amorphous GS2
# Description: (§6) The samples were incubated at 37°C for 1 h, followed by centrifugation at 2,800 relative centrifugal force (RCF) for 30 min at room temperature. Thermodynamic solubility was determined with the crystalline-free base of GS-6620 or amorphous GS2 using the shaking flask method. The concentrations of the compounds in supernatants were determined by HPLC.
# Kinetic solubility = format: physicochemical; details: 37 °C, kinetic from dmso stock
# Description: as §6
# [4] = Metabolic stability in intestinal S9 fraction, hamster; format: in vitro ADME
# Description: as §1, §2
# CES2 = molecular target: T1, CES2 (Homo sapiens, UniProt O00748); test: Ester cleavage by CES2; format: biochemical; details: GS-6620-containing diastereomeric mixture was used
# T1 construct: purchased R&D Systems (Minneapolis, MN)
# T1 sequence (O00748 27-559): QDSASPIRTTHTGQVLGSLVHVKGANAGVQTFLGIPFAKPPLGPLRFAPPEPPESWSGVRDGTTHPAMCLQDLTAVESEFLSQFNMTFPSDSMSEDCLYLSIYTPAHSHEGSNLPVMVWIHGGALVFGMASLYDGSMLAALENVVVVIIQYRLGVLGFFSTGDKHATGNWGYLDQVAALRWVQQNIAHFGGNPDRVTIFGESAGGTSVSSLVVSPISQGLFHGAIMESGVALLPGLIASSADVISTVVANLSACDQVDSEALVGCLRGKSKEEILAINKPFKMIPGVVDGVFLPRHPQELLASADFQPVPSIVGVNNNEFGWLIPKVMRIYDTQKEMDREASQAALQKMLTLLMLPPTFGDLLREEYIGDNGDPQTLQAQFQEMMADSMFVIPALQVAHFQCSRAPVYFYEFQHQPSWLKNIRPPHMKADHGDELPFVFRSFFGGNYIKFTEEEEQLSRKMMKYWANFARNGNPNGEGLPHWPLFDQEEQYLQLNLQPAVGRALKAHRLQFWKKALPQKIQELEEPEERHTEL
# Description: (§7) Biochemical assays studying prodrug cleavage have been described previously ([8]). In brief, the cleavages of GS2 by CATA, CES1, CES2, and HINT1 were assessed in vitro. The reaction substrates and products were monitored over time by high-performance liquid chromatography (HPLC).
# HCV GT1b replicon = test: HCV GT1b replicon, transiently transfected Huh-1C cells; format: cell-based, hepatitis C virus; details: for EC50: Hepatitis C virus, GT1B, 72 h
# Description: as §3
# RNA was transcribed in vitro using a MEGAscript […] kit (Ambion, Austin, TX) and transfected into Huh-Lunet and −1C cells using published methods ([21], [22]).
# as §4, §5
# CatA = molecular target: T2, CatA (Homo sapiens, UniProt P10619); test: Ester cleavage by CatA; format: biochemical; details: for Amidate ester cleavage, specific activity: CatA, GS-6620-containing diastereomeric mixture was used
# T2 construct: purified from peripheral blood mononuclear cells (PBMCs) according to a previously published procedure; from tissue; host or cells: peripheral blood mononuclear cells (PBMCs)
# T2 sequence (P10619 29-480): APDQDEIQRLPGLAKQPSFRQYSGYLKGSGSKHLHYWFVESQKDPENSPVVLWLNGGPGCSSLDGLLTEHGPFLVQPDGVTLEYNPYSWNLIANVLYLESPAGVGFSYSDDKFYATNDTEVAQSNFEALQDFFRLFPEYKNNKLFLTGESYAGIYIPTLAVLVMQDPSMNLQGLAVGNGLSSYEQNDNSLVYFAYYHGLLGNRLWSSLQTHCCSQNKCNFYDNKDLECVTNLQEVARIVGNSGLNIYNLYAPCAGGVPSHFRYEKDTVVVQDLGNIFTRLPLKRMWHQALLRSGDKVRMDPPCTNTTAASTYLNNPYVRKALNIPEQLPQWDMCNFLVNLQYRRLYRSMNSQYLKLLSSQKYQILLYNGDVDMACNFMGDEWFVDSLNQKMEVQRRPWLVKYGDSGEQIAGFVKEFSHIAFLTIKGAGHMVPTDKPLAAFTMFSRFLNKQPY
# Description: as §7
# [5] = Metabolic stability in hepatic S9 fraction, human; format: in vitro ADME; details: 2 μM
# Description: as §1, §2
# [6] = fed-state simulated intestinal fluid
# [7] = 0.1 N HCl, simulated gastric fluid, HCl (pH 1.0)
SMILES,"Metabolic stability in hepatic S9 fraction, predicted hepatic extraction [1] [%]","Fold (GS2/GS-6620) (HCV GT1a replicon; EC50 ratio, Huh-Lunet)",EC50 (HCV GT1a replicon) [nM],half-life at 2 μM [2] [h],difference in solubility between fed and fasted simulated intestinal fluid [3],"thermodynamic solubility higher than GS-6620 [3, 6] [fold]","solubility thermodynamic [3, 6] [µM]",solubility kinetic at 1 h (Kinetic solubility; [7]) [µM],"solubility kinetic at 1 h (Kinetic solubility; aqueous buffer, PBS (pH 7.0)) [µM]",half-life at 2 μM [4] [h],"Amidate ester cleavage, specific activity (CES2)","Fold (GS2/GS-6620) (HCV GT1b replicon; EC50 ratio, GT1b, Huh-1C)",EC50 (HCV GT1b replicon) [nM],"Amidate ester cleavage, specific activity (CatA)",CatA activity lower than toward GS-6620-containing diastereomeric mixture (CatA; isopropyl ester cleavage) [fold],"Metabolic stability in hepatic S9 fraction, predicted hepatic extraction [5] [%]","3′-Ester cleavage, specific activity (CES2) [pmol/min/µg]"
CC(C)OC(=O)C(C)(C)N[P@](=O)(OC[C@H]1O[C@@](C#N)(c2ccc3c(N)ncnn23)[C@](C)(O)[C@@H]1O)Oc1ccccc1 [GS2],93,3.5,380 ± 150,9.17,less than 30%,> 30,430,> 100,> 100,1.12,Stable,3.1,110 ± 20,385 pmol/min/µg,11,87,
"CC(C)OC(=O)[C@H](C)N[P@](=O)(OC[C@H]1O[C@@](C#N)(c2ccc3c(N)ncnn23)[C@](C)(O)[C@@H]1OC(=O)C(C)C)Oc1ccccc1 [GS-6620, reference compound]",97,,110 ± 50,0.55,,,7.8,87,46,< 0.0333,Stable,,35 ± 15,"4,163 pmol/min · μg",,93,60.1
